From patent US10344025B2, “GLS1 inhibitors for treating disease” (Board of Regents, The University of Texas System, priority 2014, dated 2019)
Like-named read-outs stand apart in the source and are kept apart here.

Columns and labels:
A549 cells = test: Proliferation Assay (A549 viability, Cell Titer Fluor, 72 hours); format: cell-based
Outline: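 A549 cells seeded at 1000 cells/well, rested 24 h, then exposed to compound in 0.5% DMSO for 72 h at 37 °C. Viability read by Cell Titer Fluor fluorescence; IC50 from four-parameter logistic fit.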

[1] = target: purified recombinant human GAC (GLS1) (Homo sapiens (Human), UniProt O94925); test: GLS1 Enzymatic Activity Assay (dual-coupled enzymatic assay, resorufin/Amplex UltraRed readout); format: biochemical;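 note: glutamate from GAC coupled via glutamate oxidase and peroxidase to resorufin, read as fluorescence (ex 530, em 590 nm) kinetically or at 20 min, four-parameter logistic IC50 fit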
Sequence of purified recombinant human GAC (GLS1) (O94925 other isoform, or with tags, fused parts or gaps): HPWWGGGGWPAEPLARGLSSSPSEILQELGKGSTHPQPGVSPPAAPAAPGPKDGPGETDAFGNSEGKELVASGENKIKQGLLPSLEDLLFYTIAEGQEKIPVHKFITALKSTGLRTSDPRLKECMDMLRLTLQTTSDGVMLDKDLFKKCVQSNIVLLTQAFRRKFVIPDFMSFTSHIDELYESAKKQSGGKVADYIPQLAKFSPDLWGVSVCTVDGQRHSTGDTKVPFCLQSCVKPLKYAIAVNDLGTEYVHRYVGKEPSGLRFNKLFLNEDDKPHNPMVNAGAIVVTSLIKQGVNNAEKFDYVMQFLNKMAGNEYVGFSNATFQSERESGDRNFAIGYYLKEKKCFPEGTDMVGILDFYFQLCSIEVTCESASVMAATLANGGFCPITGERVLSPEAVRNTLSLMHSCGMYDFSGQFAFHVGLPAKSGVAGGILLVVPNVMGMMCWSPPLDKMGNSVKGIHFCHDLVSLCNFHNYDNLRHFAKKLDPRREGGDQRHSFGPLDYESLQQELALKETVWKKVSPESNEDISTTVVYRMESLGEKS

EC50 (A549 cells; Homo sapiens, A549, 72 h) | IC50 [1] | EC50 (A549 cells) | SMILES
0.1 to 0.5 µM | < 0.1 µM |  | CC(=O)Nc1ccc(CCCCn2cc(C(=O)NCc3cc(C(F)(F)F)ccn3)nn2)nn1 [Example 175, 1-[4-(6-acetamidopyridazin-3-yl)butyl]-N-{[4-(trifluoromethyl)pyridin-2-yl]methyl}-1H-1,2,3-triazole-4-carboxamide]
0.1 to 0.5 µM | < 0.1 µM |  | O=C(NCc1cccc(OC(F)(F)F)c1)c1cn(CCCCc2ccc(NC(=O)C3CC3)nn2)nn1 [Example 176, 1-[4-(6-cyclopropaneamidopyridazin-3-yl)butyl]-N-{[3-(trifluoromethoxy)phenyl]methyl}-1H-1,2,3-triazole-4-carboxamide]
0.1 to 0.5 µM | < 0.1 µM |  | O=C(NCc1cc(C(F)(F)F)ccn1)c1cn(CCCCc2ccc(NC(=O)C3CC3)nn2)nn1 [Example 177, 1-[4-(6-cyclopropaneamidopyridazin-3-yl)butyl]-N-{[4-(trifluoromethyl)pyridin-2-yl]methyl}-1H-1,2,3-triazole-4-carboxamide]
0.1 to 0.5 µM | < 0.1 µM |  | CNC(=O)c1cn(CCCCc2ccc(NC(=O)Cc3cccc(N4CCOCC4)c3)nn2)nn1 [Example 178, N-methyl-1-[4-(6-{2-[3-(morpholin-4-yl)phenyl]acetamido}pyridazin-3-yl)butyl]-1H-1,2,3-triazole-4-carboxamide]
0.5 to 5 µM | < 0.1 µM |  | CNC(=O)c1cn(CCCCc2ccc(NC(=O)[C@@H](C)c3ccccc3)nn2)nn1 [Example 179, N-methyl-1-(4-{6-[(2S)-2-phenylpropanamido]pyridazin-3-yl}butyl)-1H-1,2,3-triazole-4-carboxamide]
0.1 to 0.5 µM | < 0.1 µM |  | CNC(=O)c1cn(CCCCc2ccc(NC(=O)Cc3cccc(Cl)c3F)nn2)nn1 [Example 180, 1-(4-{6-[2-(3-chloro-2-fluorophenyl)acetamido]pyridazin-3-yl}butyl)-N-methyl-1H-1,2,3-triazole-4-carboxamide]
0.5 to 5 µM | 0.1 to 0.5 µM |  | CNC(=O)c1cn(CCC(F)Cn2cc(C(=O)NCc3ccc(OC(F)F)cc3)nn2)nn1 (stereo not drawn) [Example 181, 1{4-[4-({[4-(difluoromethoxy)phenyl]methyl}carbamoyl)-1H-1,2,3-triazol-1-yl]-3-fluorobutyl}-N-methyl-1H-1,2,3-triazole-4-carboxamide]
> 5 µM | 0.1 to 0.5 µM |  | CNC(=O)c1cn(CCC(F)Cn2cc(C(=O)NCc3cccc(C#N)c3)nn2)nn1 (stereo not drawn) [Example 182, 1-[4-(4-{[(3-cyanophenyl)methyl]carbamoyl}-1H-1,2,3-triazol-1-yl)-3-fluorobutyl]-N-methyl-1H-1,2,3-triazole-4-carboxamide]
> 5 µM | 0.1 to 0.5 µM |  | CNC(=O)c1cn(CCC(F)Cn2cc(C(=O)NCc3cccc(S(C)(=O)=O)c3)nn2)nn1 (stereo not drawn) [Example 183, 1-[3-fluoro-4-(4-{[(3-methanesulfonylphenyl)methyl]carbamoyl}-1H-1,2,3-triazol-1-yl)butyl]-N-methyl-1H-1,2,3-triazole-4-carboxamide]
> 5 µM | 0.5 to 5 µM |  | CNC(=O)c1cn(CCC(F)Cn2cc(C(=O)NCc3ccc(C(F)(F)F)cn3)nn2)nn1 (stereo not drawn) [Example 184, 1-{3-fluoro-4-[4-({[5-(trifluoromethyl)pyridin-2-yl]methyl}carbamoyl)-1H-1,2,3-triazol-1-yl]butyl}-N-methyl-1H-1,2,3-triazole-4-carboxamide]
0.5 to 5 µM | 0.1 to 0.5 µM |  | CNC(=O)c1cn(CCC(F)Cn2cc(C(=O)NCc3cccc(C(=O)OC)c3)nn2)nn1 (stereo not drawn) [Example 185, methyl 3-{[(1-{2-fluoro-4-[4-(methylcarbamoyl)-1H-1,2,3-triazol-1-yl]butyl}-1H-1,2,3-triazol-4-yl)formamido]methyl} benzoate]
0.5 to 5 µM | 0.1 to 0.5 µM |  | CNC(=O)c1cn(CCC(F)Cn2cc(C(=O)NCc3ccc(C(F)(F)F)nc3)nn2)nn1 (stereo not drawn) [Example 186, 1-{3-fluoro-4-[4-({[6-(trifluoromethyl)pyridin-3-yl]methyl}carbamoyl)-1H-1,2,3-triazol-1-yl]butyl}-N-methyl-1H-1,2,3-triazole-4-carboxamide]
> 5 µM | 0.1 to 0.5 µM |  | CNC(=O)c1cn(CCC(F)Cn2cc(C(=O)NCc3ccc(C)nc3)nn2)nn1 (stereo not drawn) [Example 187, 1-[3-fluoro-4-(4-{[(6-methylpyridin-3-yl)methyl]carbamoyl}-1H-1,2,3-triazol-1-yl)butyl]-N-methyl-1H-1,2,3-triazole-4-carboxamide]
< 0.1 µM | < 0.1 µM |  | CNC(=O)c1cn(CCCCc2ccc(NC(=O)Cc3cncc(-c4cccc(OC(F)(F)F)c4)c3)nn2)nn1 [Example 188, N-methyl-1-(4-(6-(2-(5-(3-(trifluoromethoxy)phenyl)pyridin-3-yl)acetamido)pyridazin-3-yl)butyl)-1H-1,2,3-triazole-4-carboxamide]
> 5 µM | 0.5 to 5 µM |  | CNC(=O)c1cn(CC(F)CCc2nnc(C(=O)NCc3ccc(C(F)(F)F)cn3)s2)nn1 (stereo not drawn) [Example 189, 5-{3-fluoro-4-[4-(methylcarbamoyl)-1H-1,2,3-triazol-1-yl]butyl}-N-{[5-(trifluoromethyl)pyridin-2-yl]methyl}-1,3,4-thiadiazole-2-carboxamide]
 | < 0.1 µM | 0.5 to 5 µM | CNC(=O)c1cn(C[C@@H](F)CCc2nnc(NC(=O)Cc3cccc(OC(F)(F)F)c3)s2)nn1 [Example 193, (S)-1-(2-fluoro-4-(5-(2-(3-(trifluoromethoxy)phenyl)acetamido)-1,3,4-thiadiazol-2-yl)butyl)-N-methyl-1H-1,2,3-triazole-4-carboxamide]
 | < 0.1 µM | < 0.1 µM | CNC(=O)c1cn(C[C@@H](F)CCc2nnc(NC(=O)Cc3cccc(OC(F)(F)F)c3)s2)nn1 [Example 194, (S)-1-(2-fluoro-4-(5-(2-(3-(trifluoromethoxy)phenyl)acetamido)-1,3,4-thiadiazol-2-yl)butyl)-N-methyl-1H-1,2,3-triazole-4-carboxamide]
< 0.1 µM | < 0.1 µM |  | CNC(=O)c1cn(CC(F)CCc2nnc(NC(=O)Cc3cncc(-c4cccc(OC(F)(F)F)c4)c3)s2)nn1 (stereo not drawn) [Example 195, 1-(2-fluoro-4-(5-(2-(5-(3-(trifluoromethoxy)phenyl)pyridin-3-yl)acetamido)-1,3,4-thiadiazol-2-yl)butyl)-N-methyl-1H-1,2,3-triazole-4-carboxamide]
< 0.1 µM | < 0.1 µM |  | O=C(Cc1ccccn1)Nc1nnc(CC[C@H](F)Cn2cc(C(=O)NCc3cc(OC(F)(F)F)ccc3F)nn2)s1 [Example 197, (S)-1-(2-fluoro-4-(5-(2-(pyridin-2-yl)acetamido)-1,3,4-thiadiazol-2-yl)butyl)-N-(2-fluoro-5-(trifluoromethoxy)benzyl)-1H-1,2,3-triazole-4-carboxamide]
< 0.1 µM | < 0.1 µM |  | O=C(Cc1ccccn1)Nc1nnc(CC[C@@H](F)Cn2cc(C(=O)NCc3cc(OC(F)(F)F)ccc3F)nn2)s1 [Example 198, (R)-1-(2-fluoro-4-(5-(2-(pyridin-2-yl)acetamido)-1,3,4-thiadiazol-2-yl)butyl)-N-(2-fluoro-5-(trifluoromethoxy)benzyl)-1H-1,2,3-triazole-4-carboxamide]
0.1 to 0.5 µM | < 0.1 µM |  | CNC(=O)c1cn(CCCCc2ccc(NC(=O)Cc3cccc(C4=CCOCC4)c3)nn2)nn1 [Example 199, 1-(4-(6-(2-(3-(3,6-dihydro-2H-pyran-4-yl)phenyl)acetamido)pyridazin-3-yl)butyl)-N-methyl-1H-1,2,3-triazole-4-carboxamide]
0.1 to 0.5 µM | < 0.1 µM |  | O=C(Cc1ccccn1)Nc1nnc(CC[C@@H](F)Cn2cc(C(=O)NCc3ccc(C(F)(F)F)cn3)nn2)s1 [Example 201, (R)-1-(2-fluoro-4-(5-(2-(pyridin-2-yl)acetamido)-1,3,4-thiadiazol-2-yl)butyl)-N-((5-(trifluoromethyl)pyridin-2-yl)methyl)-1H-1,2,3-triazole-4-carboxamide]
< 0.1 µM | < 0.1 µM |  | O=C(Cc1cc(OC(F)(F)F)ccc1F)Nc1nnc(CCC(F)Cn2cc(C(=O)NCc3ccccn3)nn2)s1 (stereo not drawn) [Example 204, 1-(2-fluoro-4-(5-(2-(2-fluoro-5-(trifluoromethoxy)phenyl)acetamido)-1,3,4-thiadiazol-2-yl)butyl)-N-(pyridin-2-ylmethyl)-1H-1,2,3-triazole-4-carboxamide]
< 0.1 µM | < 0.1 µM |  | COc1ccnc(CNC(=O)c2cn(CC(F)CCc3nnc(NC(=O)Cc4cc(OC(F)(F)F)ccc4F)s3)nn2)c1 (stereo not drawn) [Example 205, 1-(2-fluoro-4-(5-(2-(2-fluoro-5-(trifluoromethoxy)phenyl)acetamido)-1,3,4-thiadiazol-2-yl)butyl)-N-((4-methoxypyridin-2-yl)methyl)-1H-1,2,3-triazole-4-carboxamide]
< 0.1 µM | < 0.1 µM |  | COc1cccc(CNC(=O)c2cn(CC(F)CCc3nnc(NC(=O)Cc4cc(OC(F)(F)F)ccc4F)s3)nn2)n1 (stereo not drawn) [Example 206, 1-(2-fluoro-4-(5-(2-(2-fluoro-5-(trifluoromethoxy)phenyl)acetamido)-1,3,4-thiadiazol-2-yl)butyl)-N-((6-methoxypyridin-2-yl)methyl)-1H-1,2,3-triazole-4-carboxamide]
< 0.1 µM | < 0.1 µM |  | CNC(=O)c1cn(CCCCc2ccc(NC(=O)Cc3cc(-c4ccccc4OC(F)(F)F)ccn3)nn2)nn1 [Example 207, N-methyl-1-(4-(6-(2-(4-(2-(trifluoromethoxy)phenyl)pyridin-2-yl)acetamido)pyridazin-3-yl)butyl)-1H-1,2,3-triazole-4-carboxamide]
0.1 to 0.5 µM | < 0.1 µM |  | CNC(=O)c1cn(CCCCc2ccc(NC(=O)Cc3cc(C4CCOCC4)ccn3)nn2)nn1 [Example 208, N-methyl-1-(4-(6-(2-(4-(tetrahydro-2H-pyran-4-yl)pyridin-2-yl)acetamido)pyridazin-3-yl)butyl)-1H-1,2,3-triazole-4-carboxamide]
